Reference: US12251411B2, “Methods of treating endometrial cancer using hemp extract” (Ecofibre USA Inc., priority 2021, dated 2025)
Like-named read-outs stand apart in the source and are kept apart here.

Experiments:
[1] = cited from earlier work
[2] = test system: patient derived organoids; experiment: Calculated IC50 of various agents on organoids derived from the chemoresistant patient (PD3D cell culture); assay type: cell-based, human; conditions: organoids of the chemoresistant stage IV patient
Method: The IC50 values were calculated from such tests. This value indicates the dosage at which 50% of the organoids were killed due to treatment.

[3] = test system: patient derived organoids; assay type: cell-based, human; conditions: % of cells that died compared to control; organoids of the chemoresistant patient
Method: In addition to the agents listed above, several other drugs were tested to see if they influenced organoid growth. In this case, results are shown as the % of cells that died compared to control. […] This is consistent with the patient's actual lack of response to treatment with paclitaxel.

[4] = test system: patient derived endometrial cancer organoids; experiment: Patient-derived endometrial cancer organoid viability: chemotherapeutic agent alone or with IC50 dose of cannabis extract; conditions: patient 4
Method: To perform these experiments, we used cells from patient 4 (see, e.g., FIGS. 7A and 7C) to test grade 2 endometrial cancer and cells from patient 12 (see, e.g., FIGS. 7B-7D) to test grade 3 endometrial cancer. […] Methods concerning producing organoids from human tissue samples are provided in the Methods section at the end of this document.
Individual patient cell organoids were cultured separately in different plates.
The same IC50 dose was given with each incremental dose of chemotherapeutic agent.

[5] = oral formulations; cited from earlier work

Molecule: C[C@H]1[C@H](OC(=O)CCC(=O)O)O[C@@H]2O[C@@]3(C)CC[C@H]4[C@H](C)CC[C@@H]1[C@@]24OO3 [Artesunate]
- Cmax ([1]; in vivo): 8580 nM
- IC50 ([2]; Homo sapiens): 38.4 µM

Molecule: O=C1O[C@H]([C@@H](O)CO)C(O)=C1O [Ascorbic Acid]
- Cmax ([1]; in vivo): 436000 nM
- Calculated IC50 PD3D Cell Culture [2]: Not Reached

Molecule: CO[C@H]1C(=O)[C@]2(C)[C@@H](OC)C[C@H]3OC[C@@]3(OC(C)=O)[C@H]2[C@H](OC(=O)c2ccccc2)[C@]2(O)C[C@H](OC(=O)[C@H](O)[C@@H](NC(=O)OC(C)(C)C)c3ccccc3)C(C)=C1C2(C)C [Cabazitaxel]
- % Cell Death [3]: 37%

Molecule: CCCCCOC(=O)Nc1nc(=O)n([C@@H]2O[C@H](C)[C@@H](O)[C@H]2O)cc1F [Capecitabine (5-FU)]
- Calculated IC50 PD3D Cell Culture [2]: Not Reached
- % Cell Death [3]: 61%

Molecule: N.N.O=C([O-])C1(C(=O)[O-])CCC1.[Pt+2] [Carboplatin]
- reduction of viable organoids ([4]; carboplatin alone 50 μM/mL): about 50%
- decrease in viability as compared to 50 μM/mL ([4]; carboplatin alone 100 μM/mL): 2%
- decrease in viability from that achieved at 50 μM/mL ([4]; carboplatin alone 250 μM/mL): 17%
- organoid viability ([4]; carboplatin alone 250 μM/mL): about 32%
- % Cell Death [3]: 30%

Molecule: N.N.[Cl][Pt][Cl] [Cisplatin]
- Cmax ([1]; in vivo): 3620 nM
- IC50 [2]: 5.05 µM
- % Cell Death [3]: 36%

Molecule: O=C(c1ccc(F)c(F)c1Nc1ccc(I)cc1F)N1CC(O)([C@@H]2CCCCN2)C1 [Cobimetinib]
- Cmax [1]: 514 nM
- Calculated IC50 PD3D Cell Culture [2]: Not Reached

Molecule: COc1cc2c(c(OC)c1OC)-c1ccc(OC)c(=O)cc1[C@@H](NC(C)=O)CC2 [Colchicine]
- Cmax ([1]; in vivo): 6 nM

Molecule: C[C@@H](Oc1cc(-c2cnn(C3CCNCC3)c2)cnc1N)c1c(Cl)ccc(F)c1Cl [Crizotinib]
- Cmax ([1]; in vivo): 230 nM
- Calculated IC50 PD3D Cell Culture [2]: Not Reached

Molecule: O=P1(N(CCCl)CCCl)NCCCO1 (stereo not shown) [Cyclosphosphamide]
- % Cell Death [3]: 32%

Molecule: CN(C)/N=N/c1[nH]cnc1C(N)=O [Dacarbazine]
- % Cell Death [3]: 32%

Molecule: O=C(O)C(Cl)Cl [Dichloracetate]
- Cmax ([1]; in vivo): 330000 nM
- Calculated IC50 PD3D Cell Culture [2]: Not Reached

Molecule: CC(=O)O[C@@]12CO[C@@H]1C[C@H](O)[C@@]1(C)C(=O)[C@H](O)C3=C(C)[C@@H](OC(=O)[C@H](O)[C@@H](NC(=O)OC(C)(C)C)c4ccccc4)C[C@@](O)([C@@H](OC(=O)c4ccccc4)[C@H]21)C3(C)C [Docetaxel]
- % Cell Death [3]: No Response

Molecule: COc1cccc2c1C(=O)c1c(O)c3c(c(O)c1C2=O)C[C@@](O)(C(=O)CO)C[C@@H]3O[C@H]1C[C@H](N)[C@H](O)[C@H](C)O1 [Doxorubicin]
- % Cell Death [3]: 39%

Molecule: COc1cc([C@@H]2c3cc4c(cc3[C@@H](O[C@@H]3O[C@@H]5CO[C@@H](C)O[C@H]5[C@H](O)[C@H]3O)[C@H]3COC(=O)[C@H]23)OCO4)cc(OC)c1O [Etoposide]
- Cmax [1]: 33900 nM
- IC50 ([2]; Homo sapiens, unit inferred): 87.3 µM
- % Cell Death [3]: 33%

Molecule: Nc1ccn([C@@H]2O[C@H](CO)[C@@H](O)C2(F)F)c(=O)n1 [Gemcitabine]
- % Cell Death [3]: 56%

Molecule: N[C@@H](CCC(=O)N[C@@H](CS)C(=O)NCC(=O)O)C(=O)O [Glutathione]
- Cmax ([1]; in vivo): 150000 nM
- Calculated IC50 PD3D Cell Culture [2]: Not Reached

Molecule: CCN(CCO)CCCC(C)Nc1ccnc2cc(Cl)ccc12 (stereo not shown) [Hydroxychloroquine]
- Cmax ([1]; in vivo): 120 nM
- Calculated IC50 PD3D Cell Culture [2]: Not Reached

Molecule: CCc1c2c(nc3ccc(OC(=O)N4CCC(N5CCCCC5)CC4)cc13)-c1cc3c(c(=O)n1C2)COC(=O)[C@]3(O)CC [Irinotecan]
- % Cell Death [3]: 51%

Molecule: COc1cc2nccc(Oc3ccc(NC(=O)NC4CC4)c(Cl)c3)c2cc1C(N)=O [Lenvatinib]
- Cmax [1]: 1000 nM
- Calculated IC50 PD3D Cell Culture [2]: Not Reached

Molecule: N[C@@H](Cc1ccc(N(CCCl)CCCl)cc1)C(=O)O [Melphalan]
- % Cell Death [3]: 40%

Molecule: CN(C)C(=N)N=C(N)N [Metformin]
- Cmax ([1]; in vivo): 10800 nM
- Calculated IC50 PD3D Cell Culture [2]: Not Reached

Molecule: O=C1c2c(O)ccc(O)c2C(=O)c2c(NCCNCCO)ccc(NCCNCCO)c21 [Mitoxantrone]
- % Cell Death [3]: 50%

Molecule: O=C(Nc1ccc([N+](=O)[O-])cc1Cl)c1cc(Cl)ccc1O [Niclosamide]
- Cmax ([1]; in vivo): 310 nM
- IC50 ([2]; Homo sapiens): 0.6 µM

Molecule: O=C(c1cc(Cc2n[nH]c(=O)c3ccccc23)ccc1F)N1CCN(C(=O)C2CC2)CC1 [Olaparib]
- Cmax [1]: 17500 nM
- Calculated IC50 PD3D Cell Culture [2]: Not Reached

Molecule: Cc1[nH]c2ccccc2c1CCNCc1ccc(/C=C/C(=O)NO)cc1 [Panobinostat]
- Cmax ([1]; in vivo): 60 nM
- IC50 ([2]; Homo sapiens): 0.11 µM

Molecule: Nc1nc2[nH]cc(CCc3ccc(C(=O)N[C@@H](CCC(=O)O)C(=O)O)cc3)c2c(=O)[nH]1 [Pemetrexed]
- Cmax [1]: 291000 nM
- Calculated IC50 PD3D Cell Culture [2]: Not Reached
- % Cell Death [3]: No Response

Molecule: Nc1cccc2c1C(=O)N(C1CCC(=O)NC1=O)C2=O (stereo not shown) [Pomalidomide]
- Cmax ([1]; in vivo): 270 nM
- Calculated IC50 PD3D Cell Culture [2]: Not Reached

Molecule: Cc1ccc(C(=O)Nc2ccc(CN3CCN(C)CC3)c(C(F)(F)F)c2)cc1C#Cc1cnc2cccnn12 [Ponatinib]
- Cmax [1]: 137 nM

Molecule: CC(C)NCC(O)COc1cccc2ccccc12 (stereo not shown) [Propranolol]
- Cmax [1]: 102 nM

Molecule: N#CC[C@H](C1CCCC1)n1cc(-c2ncnc3[nH]ccc23)cn1 [Ruxolitinib]
- Cmax [1]: 587 nM

Molecule: CO[C@@H](C)Cn1c(=O)n(C)c2cnc3ccc(-c4cncc(C(C)(C)O)c4)cc3c21 [Samotolisib]
- Cmax ([1]; in vivo): 600 nM
- IC50 ([2]; Homo sapiens): 0.87 µM

Molecule: CCN(CC)CCNC(=O)c1c(C)[nH]c(/C=C2\C(=O)Nc3ccc(F)cc32)c1C [Sunitnib]
- Cmax ([1]; in vivo): 90 nM
- Calculated IC50 PD3D Cell Culture [2]: Not Reached

Molecule: CCCCCc1cc(O)c2c(c1)OC(C)(C)[C@@H]1CCC(C)=C[C@@H]21 [THC, Δ^9-tetrahydrocannabinol]
- onset to reach peak plasma concentration [5]: ~120 min

Molecule: Cn1nnc2c(C(N)=O)ncn2c1=O [Temozolomide]
- Cmax ([1]; in vivo): 37600 nM
- IC50 ([2]; Homo sapiens): 106 µM
- % Cell Death [3]: 40%

Molecule: COc1cc2c(cc1O)CCN[C@]21CS[C@@H]2c3c(OC(C)=O)c(C)c4c(c3[C@H](COC1=O)N1[C@@H]2[C@H]2c3c(cc(C)c(OC)c3O)C[C@@H]([C@@H]1O)N2C)OCO4 [Trabectedine]
- % Cell Death [3]: 32%

Molecule: CC[C@]1(O)C[C@@H]2CN(CCc3c([nH]c4ccccc34)[C@@](C(=O)OC)(c3cc4c(cc3OC)N(C)[C@H]3[C@@](O)(C(=O)OC)[C@H](OC(C)=O)[C@]5(CC)C=CCN6CC[C@]43[C@@H]65)C2)C1 [Vinblastine]
- % Cell Death [3]: 38%

Molecule: CCC1=C[C@@H]2CN(C1)Cc1c([nH]c3ccccc13)[C@@](C(=O)OC)(c1cc3c(cc1OC)N(C)[C@H]1[C@@](O)(C(=O)OC)[C@H](OC(C)=O)[C@]4(CC)C=CCN5CC[C@]31[C@@H]54)C2 [Vinorelbine]
- % Cell Death [3]: 45%

Molecule: COc1cccc2c1C(=O)c1c(O)c3c(c(O)c1C2=O)C[C@@](O)(C(=O)CO)C[C@@H]3O[C@H]1C[C@H](N)[C@@H](O)[C@H](C)O1 [epirubicin]
- % Cell Death [3]: No Response

Molecule: C=C1C[C@@H]2CC[C@@]34C[C@H]5O[C@H]6[C@@H](O3)[C@H]3O[C@H](CC[C@@H]3O[C@H]6[C@H]5O4)CC(=O)C[C@@H]3[C@@H](OC)[C@@H](C[C@H](O)CN)O[C@H]3C[C@H]3O[C@@H](CC[C@@H]1O2)C[C@@H](C)C3=C [eribulin]
- % Cell Death [3]: No Response

Molecule: O=P1(NCCCl)OCCCN1CCCl (stereo not shown) [ifosfamide]
- % Cell Death [3]: No Response

Molecule: CN(Cc1cnc2nc(N)nc(N)c2n1)c1ccc(C(=O)N[C@@H](CCC(=O)O)C(=O)O)cc1 [methotrexate]
- % Cell Death [3]: No Response

Molecule: CO[C@@]12[C@H](COC(N)=O)C3=C(C(=O)C(C)=C(N)C3=O)N1C[C@@H]1N[C@@H]12 [mitomycin]
- % Cell Death [3]: No Response

Molecule: O=C1[O][Pt]2([NH][C@@H]3CCCC[C@H]3[NH]2)[O]C1=O [oxaliplatin]
- % Cell Death [3]: No Response

Molecule: CC[C@]1(O)C[C@H]2CN(CCc3c([nH]c4ccccc34)[C@@](C(=O)OC)(c3cc4c(cc3OC)N(C=O)[C@H]3[C@@](O)(C(=O)OC)[C@H](OC(C)=O)[C@]5(CC)C=CCN6CC[C@]43[C@@H]65)C2)C1 [vincristine]
- % Cell Death [3]: No Response

Molecule: Bevacizumab
- Cmax ([1]; in vivo): 920 nM
- Calculated IC50 PD3D Cell Culture [2]: Not Reached

Molecule: Bleomycin
- % Cell Death [3]: 53%
